This passage reports SGI results from patent publication US20250041298A1, “CDK4 INHIBITOR FOR THE TREATMENT OF CANCER” (Pfizer Inc., priority 2021, published 2025).

Values joined by “and” are separate entries in the source; they are usually repeats but may differ in a detail not shown here. Equal entries are not always repeated.

Holding throughout (type): cell-based, human
Assay [1] relates to HR+, HER2+ BT474 breast cancer spheroids. Kind of assay: Multicellular tumor spheroid growth inhibition (SGI), BT474. The protocol:
(§1) The purpose of this example was to evaluate the combination effect of PF-07220060 and endocrine therapy in multicellular tumor spheroid growth inhibition (SGI). To model the characteristics and cellular behavior of human tumors, the activity of PF-07220060 was evaluated in three dimensional MCTS models of HR+ breast cancer and AR+ prostate cancer following PF-07220060 treatment as a single agent and in combination with fulvestrant • 1) in HR+, HER2-T47D breast cancer spheroids. • 2) in HR+, HER2+BT474 breast cancer spheroids, • 3) in BT474 spheroids, and • 4) in AR+ prostate carcinoma cell line (LNCaP) prostate cancer spheroids. Spheroids were treated with increasing concentrations of 100, 300, or 1000 nM PF-07220060 and compared to palbociclib at the clinically relevant concentration of 30 nM. Single agent PF-07220060 inhibited spheroid growth in a dose-dependent manner, with highest efficacy (86% SGI over the duration of treatment with 1000 nM) shown in the T47D BC spheroid model (Table 1). Combining 100 nM PF-07220060 with 1 nM fulvestrant in T47D cells increased SGI to 96% compared to either single agent alone (57 to 67% SGI with 100 nM PF-07220060 or 79% SGI with fulvestrant) (Table 1). BT474 spheroids were relatively less sensitive to PF-07220060 resulting in 52% SGI at 1000 nM.

Assay [2] relates to HR+, HER2- T47D breast cancer spheroids. The experiment in a line: Multicellular tumor spheroid growth inhibition (SGI), T47D. As to the method: as §1
In assay [3] the test system is AR+ prostate carcinoma cell line (LNCaP) prostate cancer spheroids. Kind of assay: Multicellular tumor spheroid growth inhibition (SGI), LNCaP. As to the method: The purpose of this example was to evaluate the combination effect of PF-07220060 and endocrine therapy in multicellular tumor spheroid growth inhibition (SGI). To model the characteristics and cellular behavior of human tumors, the activity of PF-07220060 was evaluated in three dimensional MCTS models of HR+ breast cancer and AR+ prostate cancer following PF-07220060 treatment as a single agent and in combination with fulvestrant • 1) in HR+, HER2-T47D breast cancer spheroids. • 2) in HR+, HER2+BT474 breast cancer spheroids, • 3) in BT474 spheroids, and • 4) in AR+ prostate carcinoma cell line (LNCaP) prostate cancer spheroids. Spheroids were treated with increasing concentrations of 100, 300, or 1000 nM PF-07220060 and compared to palbociclib at the clinically relevant concentration of 30 nM.

As to `C[C@]12CC[C@@H]3c4ccc(O)cc4C[C@@H](CCCCCCCCC[S+]([O-])CCCC(F)(F)C(F)(F)F)[C@H]3[C@@H]1CC[C@@H]2O` (stereo partly drawn) [Fulvestrant, reference compound], the SGI in assay [1] (100 nM single agent) amounted to 10%; in assay [2] (1 nM single agent) it was 79%.
As to `CC(=O)c1c(C)c2cnc(Nc3ccc(N4CCNCC4)cn3)nc2n(C2CCCC2)c1=O` [Palbociclib, reference compound], the SGI in assay [1] (30 nM single agent) is 0% and 5% and 1%; in assay [2] (30 nM single agent), 38% and 49%; in assay [3] (30 nM single agent), 5%; in assay [3] (100 nM single agent), 24%.
